From patent publication US20110269790A1, “NOVEL THIENOPYRIDINES AS PHARMACOLOGICALLY ACTIVE AGENTS” (priority 2009, published 2011)
In brackets after ≈: the same amount, converted by molar mass. Several values for one entry are separate records, joined by “and”; a condition that tells them apart may be missing. Identical values can stand only once. Like-named read-outs stand apart in the source and are kept apart here.

How the values were obtained:
A549 (Lung cancer) = assay: MTT assay, A549; format: cell-based; conditions: for IC50: Homo sapiens, read-out: A549 IC50
Description: (§1) A431 (Skin cancer), Colo-205 (Colon cancer), A549 (Lung cancer) cell lines were obtained from National Center for Cell science (NCCS), Pune, India. DMEM (Dulbeccos Modified Eagles Medium), MTT [3-(4,5-dimethylthiazol-2-yl)-2,5-diphenyl tetrazolium bromide], Trypsin, EDTA were purchased from Sigma Chemicals Co (St. Louis, Mo.), Fetal bovine serum were purchased from Arrow labs, 96 well flat bottom tissue culture plates were purchased from Tarson.
(§2) A431, Colo-205, A549 cell lines were grown as adherent cells in DMEM media supplemented with 10% fetal bovine serum, 100 μg/ml penicillin, 200 μg/ml streptomycin, 2 mM L-glutamine, and culture was maintained in a humidified atmosphere with 5% CO2. Stock solution of 10 mg/ml was prepared for test molecules in DMSO. From the stock, various dilutions were made with sterile water to get required concentration. A431, Colo-205, A549 cell lines were seeded at a density of 1×10^4 cells (cell number was determined by Trypan blue exclusion dye method) per each well in 100 μl of DMEM supplemented with 10% FBS. 12 hrs after seeding, above media was replaced with fresh DMEM supplemented with 10% FBS. Then, 10 μl sample from above stock solutions were added to each well in triplicates which gives final concentration of 100, 50, 25, 10 μg/well. The above cells were incubated for 48 hrs at 37° C. with 5% CO2. After 48 hrs incubation the above media was replaced with 100 μl of fresh DMEM with out FBS and to this 10 μl of MTT (5 mg dissolved in 1 ml of PBS) was added and incubated for 3 hrs at 37° C. with 5% CO2. After 3 hrs of incubation, the above media was removed with multi channel pipette, then 200 μl of DMSO was added to each well and incubated at 37° C. for 15 min. Finally, the plate was read at 570 nm using spectrophotometer (Spectra Max, Molecular devices).

Colo-205 (Colon cancer) = assay: MTT assay, Colo-205; format: cell-based; conditions: for IC50: Homo sapiens, read-out: Colo-205 IC50
Description: as §1, §2

[1] = tested on: A431 (Skin cancer) cell lines; assay: MTT assay, A431; format: cell-based; conditions: for IC50: Homo sapiens, read-out: A431 cell lines IC50
Description: as §1, §2

[2] = tested on: crude intestinal α-glucosidase; assay: In-vitro mammalian (rat intestinal) α-glucosidase inhibition assay; format: biochemical; conditions: for Mammalian α Glucosidase Inhibition (Mean ± S.E): highest concentration 5 mg/ml; for IC50: mammalian α-glucosidase, dose response study
Summary of the method: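 p-Nitrophenol release (405 nm) from 5 mM p-nitrophenyl glucoside, read 5 min after substrate addition following 5 min sample–enzyme preincubation in pH 6.8 phosphate buffer. Enzymes: baker's yeast α-glucosidase (0.76 U/ml) and sonicated rat intestinal acetone powder supernatant. Blank-corrected inhibition vs DMSO; IC50 by log regression.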

Wistar rats = assay: Carrageenan induced paw edema model; format: in vivo, rat; conditions: for change in vivo at 100 mg/kg / inhibition in vivo at 100 mg/kg: Rattus norvegicus; for change in vivo at 100 mg/kg: read-out: % Increase in Paw Volume; for inhibition in vivo at 100 mg/kg: read-out: % Inhibition (paw volume); for % Inhibition / Percentage Swelling (50 mg/kg) / Percentage Swelling (100 mg/kg) / Percentage Swelling (200 mg/kg): dose response study, n=6
[3] = test compounds 100 mg/kg oral, Indomethacin 10 mg/kg oral, 3 hrs after Carrageenan

| SMILES | Colo-205 IC50 (Colo-205 (Colon cancer); MTT, 48 hrs) | Mammalian α-glucosidase inhibitory activity (in words) [2] | Mammalian α-glucosidase inhibition (Mean ± S.E) ([2]; 0.039063 mg/ml) [%] | Mammalian α-glucosidase inhibition (Mean ± S.E) ([2]; 0.078125 mg/ml) [%] | Mammalian α-glucosidase inhibition (Mean ± S.E) ([2]; 0.15625 mg/ml) [%] | Mammalian α-glucosidase inhibition (Mean ± S.E) ([2]; 0.3125 mg/ml) [%] | Mammalian α-glucosidase inhibition (Mean ± S.E) ([2]; 0.625 mg/ml) [%] | Mammalian α-glucosidase inhibition (Mean ± S.E) ([2]; 1.25 mg/ml) [%] | Mammalian α-glucosidase inhibition (Mean ± S.E) ([2]; 2.5 mg/ml) [%] | Mammalian α-glucosidase inhibition (Mean ± S.E) ([2]; 5 mg/ml) [%] | Mammalian α Glucosidase Inhibition (Mean ± S.E) [2] [%] | IC50 [2] [µg/mL] | IC50 (A549 (Lung cancer); A549, MTT, 48 hrs) [µg/mL] | IC50 (Colo-205 (Colon cancer); COLO 205, MTT, 48 hrs) [µg/mL] | IC50 ([1]; A-431, MTT, 48 hrs) [µg/mL] | change in vivo at 100 mg/kg (Wistar rats; [3]) [%] | inhibition in vivo at 100 mg/kg (Wistar rats; [3]) [%] | % Inhibition (Wistar rats; 50 mg/kg oral) [%] | Percentage Swelling (50 mg/kg) (Wistar rats; 50 mg/kg oral) [%] | % Inhibition (Wistar rats; 100 mg/kg oral) [%] | other results |
| --- | --- | --- | --- | --- | --- | --- | --- | --- | --- | --- | --- | --- | --- | --- | --- | --- | --- | --- | --- | --- | --- |
| Nc1c2c(nc3sc4c(c13)CCC4)CCCCCC2 [BN-17, 2,3,6,7,8,9,10,11-Octahydro-1H-cycloocta [b]cyclopenta[4,5]thieno[3,2-e]pyridin-12-amine] | 61.65 µg/mL | significant inhibitory activity | 10.04 ± 4.42 | 26.77 ± 1.83 | 34.53 ± 2.61 | 44.41 ± 1.52 | 52.44 ± 1.56 | 66.57 ± 1.11 | 70.69 ± 2.75 | 75.39 ± 13.76 | 75.39 | 528 (≈ 1940 µM) |  |  |  |  |  |  |  |  | A549 IC50 (A549 (Lung cancer); MTT, 48 hrs): 40.7 µg/mL; A431 cell lines IC50 ([1]; MTT, 48 hrs): 32.35 µg/mL; % Increase in Paw Volume (Wistar rats; [3]): 76.85 ± 6.45%; % Inhibition (paw volume) (Wistar rats; [3]): 6.87 ± 4.76% |
| Nc1c2c(nc3sc4c(c13)CCCC4)CCCC2 [BN-6, 1,2,3,4,7,8,9,10-Octahydrobenzo[4,5]thieno[2,3-b]quinolin-11-amine] |  |  |  |  |  |  |  |  |  |  | 19.92 ± 1.27 |  | 33.8 (≈ 131 µM) | 162 (≈ 627 µM) | 36.3 (≈ 140 µM) | 109 ± 2.73 | 3.14 ± 1.96 |  |  |  |  |
| CC1CCc2c(nc3sc4c(c3c2N)CCCC4)C1 (stereo not shown) [BN-7, 8-Methyl-1,2,3,4,7,8,9,10-octahydrobenzo[4,5]thieno[2,3-b]quinolin-11-amine] |  | moderate inhibitory activity |  |  |  |  |  |  |  |  | 50.19 ± 0.93 |  | 49 (≈ 180 µM) | 70.7 (≈ 260 µM) | 36.3 (≈ 133 µM) | 113 ± 22.3 | 0.7 ± 0.7 |  |  |  |  |
| Cc1sc2nc3c(c(N)c2c1C)CCCCC3 [BN-4, 2,3-dimethyl-6,7,8,9-tetrahydro-5H-cyclohepta[b]thieno[3,2-e]pyridin-4-amine] | No activity | moderate inhibitory activity |  |  |  |  |  |  |  |  | 38.37 ± 1.0 |  | 36.3 (≈ 147 µM) |  | 47.8 (≈ 194 µM) | 68.1 ± 3.41 | 41.8 ± 3.77 | 23.93 ± 2.96 | 73.27 ± 4.47 | 35.68 ± 3.77 | Percentage Swelling (100 mg/kg) (Wistar rats; 100 mg/kg oral): 64.42 ± 3.97 %; % Inhibition (Wistar rats; 200 mg/kg oral): 53.2% and 53.2 ± 3.03%; Percentage Swelling (200 mg/kg) (Wistar rats; 200 mg/kg oral): 44.23 ± 3.34 % |
| Nc1c2c(nc3sc4c(c13)CCC4)CCC2 [BN-13, 1,2,3,6,7,8-hexahydrocyclopenta [b]cyclopenta[4,5] thieno[3,2-e]pyridin-9-amine] |  | significant inhibitory activity | 10.06 ± 1.36 | 27.07 ± 1.93 | 34.89 ± 2.28 | 44.87 ± 1.62 | 52.97 ± 1.47 | 67.24 ± 1.08 | 71.39 ± 1.82 | 76.13 ± 0.03 | 76.13 | 509 (≈ 2210 µM) |  |  |  |  |  |  |  |  | IC50 (A549 (Lung cancer); A549, 48 h): 83.2 µg/mL (≈ 361 µM); IC50 (Colo-205 (Colon cancer); COLO 205, 48 h): 144 µg/mL (≈ 625 µM); IC50 ([1]; A-431, 48 h): 50.1 µg/mL (≈ 218 µM); change in vivo at 100 mg/kg (Wistar rats; po, 3 h): 91.7 ± 25.7%; inhibition in vivo at 100 mg/kg (Wistar rats; po, 3 h): 12.3 ± 1.95% |
| Nc1c2c(nc3sc4c(c13)CCC4)CCCC2 [BN-14, 2,3,6,7,8,9-Hexahydro-1H-cyclopenta[4,5]thieno[2,3-b]quinolin-10-amine] |  | significant inhibitory activity | 7.79 ± 3.11 | 20.75 ± 2.19 | 26.76 ± 1.37 | 34.49 ± 1.19 | 40.62 ± 0.63 | 51.56 ± 0.74 | 54.74 ± 1.01 | 58.37 ± 2.20 | 58.37 | 1560 (≈ 6380 µM) | 79.4 (≈ 325 µM) | 223 (≈ 913 µM) | 99.3 (≈ 406 µM) |  | 33.5 ± 8.35 | 19.80 ± 2.24 | 72.34 ± 1.73 | 33.47 ± 6.70 | Percentage Swelling (100 mg/kg) (Wistar rats; 100 mg/kg oral): 71.30 ± 3.72 %; % Inhibition (Wistar rats; 200 mg/kg oral): 56.45% and 56.45 ± 3.12%; Percentage Swelling (200 mg/kg) (Wistar rats; 200 mg/kg oral): 41.78 ± 3.31 % |
